Among the test systems are BT-549; CAKI-1; COLO 205; DU-145; EKVX; HCT-116; Hs-578T; IGROV-1; MCF7; NCI-H226; NCI-H23; OVCAR-4; OVCAR-5; OVCAR-8; RPMI-8226; RXF 393; SF-268; SK-MEL-2; SK-OV-3; T47D.
Holding throughout (experiment): NCI tumour cell line growth inhibition, 48 h

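The compound was tested at five concentrations on cells cultured in 96-well plates, with a 48-hour exposure period. GI50 marks 50% less growth.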 Calls of active or inactive are those of the source. No stated cut-off is given here; in the data, active = GI50 up to about 1.1 µM and inactive = higher. Bounds are passed on as bounds.

As to `N=C1OC(CN2CCN(c3ccccc3)CC2)CN1C(=O)Nc1ccccc1` (stereo not given), the GI50 in the experiment on BT-549, with CAKI-1, in the experiment with COLO 205, in the experiment on DU-145, in the experiment with EKVX and with HCT-116 was > 100 µM (inactive) each time. In addition, the GI50 in the experiment on Hs-578T, in the experiment on IGROV-1, with MCF7, with NCI-H226, in the experiment on NCI-H23 and with OVCAR-4 was > 100 µM (inactive) in each case. For the same molecule, the GI50 in the experiment with OVCAR-5, with OVCAR-8, with RPMI-8226, with RXF 393, in the experiment with SF-268 and in the experiment on SK-MEL-2 was > 100 µM (inactive) each time. Also, the GI50 in the experiment with SK-OV-3 and with T47D was > 100 µM (inactive) each time.

On to `CCOC(=O)C(NCc1cccc(C(F)(F)F)c1)(NC(=O)CC)C(F)(F)F` (stereo not given), for which the GI50 in the experiment on BT-549 was > 100 µM (inactive); in the experiment with CAKI-1 it was > 100 µM (inactive); in the experiment on COLO 205 it was > 100 µM (inactive); in the experiment with DU-145, > 100 µM (inactive); in the experiment with EKVX it was 68.5 µM (inactive); in the experiment on HCT-116 it was > 100 µM (inactive). Further, the GI50 in the experiment on Hs-578T was > 100 µM (inactive); in the experiment with IGROV-1 it was 18 µM (inactive); with MCF7, > 100 µM (inactive); with NCI-H226, > 100 µM (inactive); in the experiment on NCI-H23 it was > 100 µM (inactive); in the experiment on OVCAR-4 it was > 100 µM (inactive). The GI50 in the experiment with OVCAR-5 is > 100 µM (inactive); with OVCAR-8, > 100 µM (inactive); with RPMI-8226, 26 µM (inactive); in the experiment with RXF 393, 5.52 µM (inactive); with SF-268, > 100 µM (inactive); with SK-MEL-2, > 100 µM (inactive). The values for the GI50 in the experiment on SK-OV-3 and in the experiment with T47D were > 100 µM (inactive) and 62.4 µM (inactive), respectively.

Turning to `CC(=O)OCC(=O)O[C@@H]1[C@H]2[C@@H](OC(=O)c3ccccc3)[C@@H](C)C[C@]2(O)[C@H](OC(C)=O)[C@@]2(C)C[C@]1(OC(C)=O)C[C@H]1C(=O)C(C)(C)[C@@H](OC(C)=O)[C@@H]12`, the GI50 was > 25 µM (inactive) in the experiment on BT-549; 17.1 µM (inactive) in the experiment with CAKI-1; 4.75 µM (inactive) with COLO 205; > 25 µM (inactive) in the experiment on DU-145; 24.8 µM (inactive) in the experiment on EKVX; > 25 µM (inactive) in the experiment on HCT-116. The GI50 was 9.55 µM (inactive) with Hs-578T; > 25 µM (inactive) in the experiment with IGROV-1; > 25 µM (inactive) with MCF7; > 25 µM (inactive) in the experiment with NCI-H226; > 25 µM (inactive) in the experiment with NCI-H23; > 20.9 µM (inactive) in the experiment on OVCAR-4. Besides, the GI50 in the experiment on OVCAR-5 is 10 µM (inactive); in the experiment with OVCAR-8, > 25 µM (inactive); with RPMI-8226, 17.9 µM (inactive); in the experiment with RXF 393, > 25 µM (inactive); with SF-268, > 25 µM (inactive); in the experiment with SK-MEL-2 it was > 25 µM (inactive). Besides, the GI50 with SK-OV-3 and in the experiment on T47D was > 25 µM (inactive) in each case.

On to `Cc1ccc2c(O)cc(-c3cccc4ccccc34)nc2n1`, for which the GI50 with BT-549 was 0.652 µM (active); with CAKI-1, 0.353 µM (active); in the experiment on COLO 205, 0.022 µM (active); in the experiment on DU-145 it was 0.0392 µM (active); with EKVX, 0.0338 µM (active); with HCT-116 it was < 0.0151 µM (active). Also, the GI50 in the experiment with Hs-578T is 0.043 µM (active); in the experiment with IGROV-1, 0.0627 µM (active); in the experiment with MCF7 it was 0.0256 µM (active); in the experiment on NCI-H226, 0.0398 µM (active); with NCI-H23, 0.0352 µM (active); with OVCAR-4, 0.495 µM (active). The GI50 with OVCAR-5 is 0.0375 µM (active); in the experiment on OVCAR-8 it was 0.032 µM (active); in the experiment with RPMI-8226, 0.0227 µM (active); in the experiment on RXF 393, 0.497 µM (active); with SF-268 it was 0.762 µM (active); in the experiment on SK-MEL-2, 0.0182 µM (active). In addition, the GI50 with SK-OV-3 is 0.021 µM (active); in the experiment on T47D, 67.8 µM (inactive).

For the origin of these results see ChEMBL document CHEMBL1201862, “PubChem BioAssay data set” (2004).
